c1cnc2[nH]ccc2c1
solubility (mole fraction)
Conditions | 278.15 K | 283.15 K | 288.15 K | 293.15 K | 298.15 K | 303.15 K | 308.15 K | 313.15 K | 318.15 K | 323.15 K
in THF | 0.343 | 0.361 | 0.377 | 0.397 | 0.419 | 0.436 | 0.458 | 0.479 | 0.5 | 0.523
in acetone | 0.262 | 0.282 | 0.301 | 0.322 | 0.341 | 0.361 | 0.383 | 0.402 | 0.423 | 0.443
in acetonitrile | 0.11 | 0.116 | 0.124 | 0.134 | 0.145 | 0.159 | 0.174 | 0.193 | 0.214 | 0.242
in ethanol | 0.152 | 0.172 | 0.191 | 0.211 | 0.232 | 0.252 | 0.275 | 0.299 | 0.326 | 0.356
in ethyl acetate | 0.21 | 0.217 | 0.226 | 0.237 | 0.251 | 0.265 | 0.283 | 0.302 | 0.324 | 0.346
in isopropanol | 0.204 | 0.217 | 0.231 | 0.247 | 0.262 | 0.279 | 0.298 | 0.315 | 0.336 | 0.36
in methanol | 0.228 | 0.238 | 0.25 | 0.262 | 0.277 | 0.293 | 0.31 | 0.33 | 0.351 | 0.372
in n-hexane | 0.0192 | 0.0201 | 0.0215 | 0.0234 | 0.0256 | 0.0279 | 0.0307 | 0.0337 | 0.0376 | 0.0425
in n-propanol | 0.19 | 0.202 | 0.215 | 0.233 | 0.253 | 0.272 | 0.291 | 0.312 | 0.333 | 0.359
